Test results from patent publication US9261498B2, “Biomarker for sensitivity to mTOR inhibitor therapy in kidney cancer” (The Regents of the University of California, priority 2005, dated 2016).
“Also recorded” adds a separate entry of the source.

Columns and labels:
[1] = system: VHL knockdown xenograft tumors; test: Microvessel density by CD-31 immunolabeling in xenograft tumors; format: in vivo, SCID mice
Method: FIGS. 2A-2C. Effects of VHL knockdown on angiogenesis. (a) Microvessel density was quantified by CD-31 immunolabeling (arrows) in the xenograft tumors, and difference between CCI-779 treated (+) and vehicle (−) treated mice quantified (n=6 in each group). P<0.0033 for microvessel density counts in VHL shRNA compared to vector only (see blue bars). (b) Similar number of cells were plated and maintained in 10% serum rich media, in the presence (+) or absence (−) of 10 nM CCI-779. Thirty-six hours later, conditioned media was analyzed by anti-VEGF ELISA and cell extracts prepared for protein quantification. VEGF values were normalized to total cellular protein. Error bars equal one standard deviation (n=3). (c) Immunohistochemistry for VEGF protein was performed on paraffin embedded tumor xenografts from vehicle and CCI-779 treated mice.
Xenograft tumor samples were fixed in 10% buffered formalin and embedded in paraffin. […] Microvessel density was quantified by as described previously (Weidner, N. et al. J Natl Cancer Inst 84, 1875-87 (1992)). Briefly, microvessel density was determined by light microscopy in areas of the xenograft tumor containing highest numbers of capillaries and small venules (microvessels) per area (i.e. neovascular “hotspots”) by scanning the tumor sections at low power (40× and 100×). […]

HIF-1α = test: Immunoblot of HIF-1α protein in VHL knockdown RCC cells; format: cell-based, human; conditions: 1 and 10 nM CCI-779, 24 hours
Method: (a) SN12C-CSCG and SN12C-VHLshRNA cell were treated with vehicle, 1 nM or 10 nM of CCI-779 and lysed 24 hours later. Lysates were subjected to immunoblotting for HIF-1α, HIF-2α, GLUT-1, CA-IX, p-eIF4G, p-S6 Ribosomal protein. Equal protein loading was verified using anti-β-actin antibody. (b) HIF-1α expression was probed by immunoblotting in SN12C-MSCV-5′TOP-HIF-1α cDNA (left panel) and SN12C-MSCV-HIF-1α cDNA (tight panel) post 24 hours of vehicle, 1 nM or 10 nM of CCI-779.
Cells and xenograft tumors were lysed in ECB lysis buffer (see, e.g. Kondo et al., Cancer Cell 1, 237-46 (2002)) or high-detergent buffer (2% SDS), (see, e.g. Chen et al., Nat Med 10, 33-9 (2004)), respectively, supplemented with complete protease and phosphatase inhibitor cocktails (Calbiochem). […] Bound antibody was detected using enhanced chemiluminescence (ECL, Amersham). For VEGF ELISA quantification, cells were plated in 6 well plates (1×10^5 per well). […] Thirty-six hours later, VEGF ELISA (R&D Systems) was performed according to the manufacturer's instructions, using a Fisher Plate reader. […]
Cells and xenograft tumors were lysed in ECB lysis buffer or high-detergent buffer (2% SDS), respectively, supplemented with complete protease and phosphatase inhibitor cocktails (Calbiochem). […] Bound antibody was detected using enhanced chemiluminescence (ECL, Amersham). […]

## CO[C@H]1C[C@@H]2CC[C@@H](C)[C@@](O)(O2)C(=O)C(=O)N2CCCC[C@H]2C(=O)O[C@H]([C@H](C)C[C@@H]2CC[C@@H](OC(=O)C(C)(CO)CO)[C@H](OC)C2)CC(=O)[C@H](C)/C=C(\C)[C@@H](O)[C@@H](OC)C(=O)[C@H](C)C[C@H](C)/C=C/C=C/C=C/1C [CCI-779]
[1]; CCI-779 treated vs vehicle
  angiogenesis as measured by microvessel density: objective decrease in angiogenesis
[1]; CD-31 staining, CCI-779 0.1 mg/kg vs vehicle
  decrease in microvessel density: greater than 50%
HIF-1α
  HIF-1α protein levels: dramatically reduced; also recorded: reduction; also recorded: decrease
